Values joined by “and” are separate entries in the source; they are usually repeats but may differ in a detail not shown here. Equal values may be shown once.
Columns and labels:
Assay type in all cases: biochemical
mAC4 = molecular target: T1, mAC4 (Homo sapiens, UniProt Q8NFM4); experiment: AC assay, Gsα-stimulated mAC4 in membranes from transfected HEK293 cells; conditions: 20 µM fatty acid; 300 nM Gsα; single experiments
T1 construct: Human mAC genes were from GenScript and fitted with a C-terminal FLAG-tag; FLAG (C); made in house; host or cells: HEK293, permanently transfected; membrane preparation
T1 sequence (Q8NFM4 1-1077): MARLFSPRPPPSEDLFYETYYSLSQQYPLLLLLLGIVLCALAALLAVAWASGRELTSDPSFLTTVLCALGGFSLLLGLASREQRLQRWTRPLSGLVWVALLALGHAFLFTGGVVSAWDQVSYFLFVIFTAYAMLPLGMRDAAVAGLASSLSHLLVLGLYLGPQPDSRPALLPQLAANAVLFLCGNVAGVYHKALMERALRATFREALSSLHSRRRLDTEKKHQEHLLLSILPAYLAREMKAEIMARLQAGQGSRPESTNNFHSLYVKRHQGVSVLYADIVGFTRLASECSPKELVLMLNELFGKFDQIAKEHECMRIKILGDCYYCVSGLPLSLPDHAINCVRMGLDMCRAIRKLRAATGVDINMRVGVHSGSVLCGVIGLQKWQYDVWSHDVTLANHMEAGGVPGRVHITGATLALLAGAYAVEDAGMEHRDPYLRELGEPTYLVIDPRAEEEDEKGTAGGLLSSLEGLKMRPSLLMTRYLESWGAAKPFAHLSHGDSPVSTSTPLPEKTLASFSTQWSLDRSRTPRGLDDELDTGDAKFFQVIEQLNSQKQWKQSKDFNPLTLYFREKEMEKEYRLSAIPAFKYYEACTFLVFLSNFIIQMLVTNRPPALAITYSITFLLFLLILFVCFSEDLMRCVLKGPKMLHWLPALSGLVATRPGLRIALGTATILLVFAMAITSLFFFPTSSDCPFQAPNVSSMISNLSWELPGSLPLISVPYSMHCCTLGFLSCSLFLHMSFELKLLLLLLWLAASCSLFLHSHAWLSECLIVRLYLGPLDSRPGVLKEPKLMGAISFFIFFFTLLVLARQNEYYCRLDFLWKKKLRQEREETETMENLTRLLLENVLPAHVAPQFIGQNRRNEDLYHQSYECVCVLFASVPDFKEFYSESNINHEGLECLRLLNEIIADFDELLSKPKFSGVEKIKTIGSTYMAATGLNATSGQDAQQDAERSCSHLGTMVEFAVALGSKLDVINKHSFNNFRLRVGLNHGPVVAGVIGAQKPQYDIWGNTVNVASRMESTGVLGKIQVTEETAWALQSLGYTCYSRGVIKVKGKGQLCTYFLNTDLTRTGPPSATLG
Method: (§1) hAC sequences were from NCBI were: ADCY1: NM_021116.3; ADCY2: NM_020546.2; ADCY3: NM_004036.4; ADCY4: NM_001198568.2; ADCY5: NM_183357.2; ADCY6: NM_015270.4; ADCY7: NM_001114.4; ADCY8: NM_001115.2; ADCY9: NM_001116.3. Human mAC genes were from GenScript and fitted with a C-terminal FLAG-tag. […] The gene was synthesized by GenScript. HEK293 cells were maintained in Dulbeccos Modified Eagle Medium (DMEM) with 10% fetal bovine serum at 37°C and 5% CO2. Transfection with AC plasmids was with PolyJet (SignaGen, Frederick, MD, USA). Permanent cell lines were generated by selection for 7 days with 600 µg/ml G418 and maintained with 300 µg/ml For membrane preparation, cells were tyrpsinized, collected by centrifugation (3000 × g, 5 min) and lysed and homogenized in 20 mM HEPES, pH 7.5, 1 mM Ethylenediaminetetraacetic acid (EDTA), 2 mM MgCl2, 1 mM Dithiothreitol (DTT), one tablet of cOmplete, EDTA-free (per 50 ml) and 250 mM sucrose by 20 strokes in a potter homogenizer on ice. Debris was removed (5 min at 1000 × g, 0°C), membranes were collected at 100,000 × g, 60 min at 0°C, suspended and stored at −80°C in 20 mM MOPS, pH 7.5, 0.5 mM EDTA, 2 mM MgCl2. […] Three cerebral cortices were dissected and homogenized in 4.5 ml cold 48 mM Tris–HCl, pH 7.4, 12 mM MgC1_2, and 0.1 mM Ethylene glycol-bis(β-aminoethyl ether)-N,N,N′,N′-tetraacetic acid (EGTA) with a Polytron hand disperser (Kinematica AG, Switzerland). […] The pellet was washed once with 5 ml 1 mM KHCO3. The final suspension in 2 ml 1 mM KHCO3 was stored in aliquots at −80°C.
(§2) In a volume of 10 μl, AC activities were measured using 1 mM ATP, 2 mM MgCl2, 3 mM creatine phosphate, 60 μg/ml creatine kinase, and 50 mM MOPS pH 7.5. The cAMP assay kit from Cisbio (Codolet, France) was used for detection according to the supplier’s instructions. For each assay, a cAMP standard curve was established. EC50 and IC50 values were calculated by GraphPad Prism version 8.4.3 for Windows, GraphPad Software, San Diego, CA, USA, https://www.graphpad.com .

mAC8 = molecular target: T2, mAC8 (Homo sapiens, UniProt P40145); experiment: AC assay, Gsα-stimulated mAC8 in membranes from transfected HEK293 cells; conditions: 20µM fatty acid concentration
T2 construct: Human mAC genes were from GenScript and fitted with a C-terminal FLAG-tag; FLAG (C); made in house; host or cells: HEK293, permanently transfected; membrane preparation
Method: as §1, §2

mAC1 = molecular target: T3, mAC1 (Homo sapiens, UniProt Q08828); experiment: AC assay, Gsα-stimulated mAC1 in membranes from transfected HEK293 cells; conditions: 20 µM fatty acid; 300 nM Gsα; single experiments
T3 construct: Human mAC genes were from GenScript and fitted with a C-terminal FLAG-tag; FLAG (C); made in house; host or cells: HEK293, permanently transfected; membrane preparation
Method: as §1, §2

mAC9 = molecular target: T4, mAC9 (Homo sapiens, UniProt O60503); experiment: AC assay, Gsα-stimulated mAC9 in membranes from transfected HEK293 cells; conditions: for EC50: enhancement of 300 nM Gsα-stimulated activity, read-out: EC50 for mAC9
T4 construct: Human mAC genes were from GenScript and fitted with a C-terminal FLAG-tag; FLAG (C); made in house; host or cells: HEK293, permanently transfected; membrane preparation
Method: as §1, §2

mAC6 = molecular target: T5, mAC6 (Homo sapiens, UniProt O43306); experiment: AC assay, Gsα-stimulated mAC6 in membranes from transfected HEK293 cells; conditions: 20µM fatty acid concentration
T5 construct: Human mAC genes were from GenScript and fitted with a C-terminal FLAG-tag; FLAG (C); made in house; host or cells: HEK293, permanently transfected; membrane preparation
Method: as §1, §2

mAC3 = molecular target: T6, mAC3 (Homo sapiens, UniProt O60266); experiment: AC assay, Gsα-stimulated mAC3 in membranes from transfected HEK293 cells; conditions: for mAC3 activity [%] (100% = 300nM Gsα stimulation): individual experiments; for Effect of lipid on 300 nM Gsα-stimulated mAC3: 20 µM, in words
T6 construct: Human mAC genes were from GenScript and fitted with a C-terminal FLAG-tag; FLAG (C); made in house; host or cells: HEK293, permanently transfected; membrane preparation
Method: as §1, §2

mAC2 = molecular target: T7, mAC2 (Homo sapiens, UniProt Q08462); experiment: AC assay, Gsα-stimulated mAC2 in membranes from transfected HEK293 cells; conditions: Figure 5-figure supplement 1 left, 20 µM
T7 construct: Human mAC genes were from GenScript and fitted with a C-terminal FLAG-tag; FLAG (C); made in house; host or cells: HEK293, permanently transfected; membrane preparation
Method: as §1, §2

mAC7 = molecular target: T8, mAC7 (Homo sapiens, UniProt P51828); experiment: AC assay, Gsα-stimulated mAC7 in membranes from transfected HEK293 cells; conditions: Figure 5-figure supplement 2 left, 20 µM
T8 construct: Human mAC genes were from GenScript and fitted with a C-terminal FLAG-tag; FLAG (C); made in house; host or cells: HEK293, permanently transfected; membrane preparation
Method: as §1, §2

mAC5 = molecular target: T9, mAC5 (Homo sapiens, UniProt O95622); experiment: AC assay, Gsα-stimulated mAC5 in membranes from transfected HEK293 cells
T9 construct: Human mAC genes were from GenScript and fitted with a C-terminal FLAG-tag; FLAG (C); made in house; host or cells: HEK293, permanently transfected; membrane preparation
Method: as §1, §2

[1] = 20 µM fatty acid, 300 nM Gsα, single experiments
[2] = 3 µM fatty acid, 300 nM Gsα, single experiments
[3] = 6 µM fatty acid, 300 nM Gsα, single experiments
[4] = 10 µM fatty acid, 300 nM Gsα, single experiments

T6 sequence (O60266 whole entry): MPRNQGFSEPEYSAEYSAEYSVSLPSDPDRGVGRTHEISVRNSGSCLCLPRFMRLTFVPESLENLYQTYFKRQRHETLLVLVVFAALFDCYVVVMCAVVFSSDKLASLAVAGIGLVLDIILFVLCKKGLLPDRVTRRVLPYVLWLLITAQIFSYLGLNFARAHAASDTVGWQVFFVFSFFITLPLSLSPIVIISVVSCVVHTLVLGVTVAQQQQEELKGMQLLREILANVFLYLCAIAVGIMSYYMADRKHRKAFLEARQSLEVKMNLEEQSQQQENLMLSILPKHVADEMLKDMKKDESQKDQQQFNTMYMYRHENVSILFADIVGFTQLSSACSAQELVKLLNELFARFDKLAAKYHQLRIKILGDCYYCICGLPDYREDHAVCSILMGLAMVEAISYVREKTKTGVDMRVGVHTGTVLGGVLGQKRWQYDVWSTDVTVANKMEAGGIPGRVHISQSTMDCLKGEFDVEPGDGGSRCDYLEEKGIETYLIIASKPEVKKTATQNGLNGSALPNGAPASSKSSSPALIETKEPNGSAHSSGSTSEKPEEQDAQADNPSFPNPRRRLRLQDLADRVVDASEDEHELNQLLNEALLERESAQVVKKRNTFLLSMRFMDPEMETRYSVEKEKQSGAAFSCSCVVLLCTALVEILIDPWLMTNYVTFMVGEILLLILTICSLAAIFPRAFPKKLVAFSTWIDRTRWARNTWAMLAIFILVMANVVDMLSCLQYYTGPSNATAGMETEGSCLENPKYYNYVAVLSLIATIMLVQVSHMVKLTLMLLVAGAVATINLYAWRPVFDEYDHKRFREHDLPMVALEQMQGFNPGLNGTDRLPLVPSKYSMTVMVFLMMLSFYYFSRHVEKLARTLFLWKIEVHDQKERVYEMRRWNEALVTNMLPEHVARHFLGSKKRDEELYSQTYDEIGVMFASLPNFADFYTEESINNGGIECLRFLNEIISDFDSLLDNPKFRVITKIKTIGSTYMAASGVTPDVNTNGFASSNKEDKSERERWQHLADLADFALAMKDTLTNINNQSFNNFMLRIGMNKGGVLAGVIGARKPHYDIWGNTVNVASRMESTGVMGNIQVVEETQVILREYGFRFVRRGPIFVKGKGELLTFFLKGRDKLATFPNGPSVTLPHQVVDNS
T6 sequence (P63092 whole entry Q227L partner): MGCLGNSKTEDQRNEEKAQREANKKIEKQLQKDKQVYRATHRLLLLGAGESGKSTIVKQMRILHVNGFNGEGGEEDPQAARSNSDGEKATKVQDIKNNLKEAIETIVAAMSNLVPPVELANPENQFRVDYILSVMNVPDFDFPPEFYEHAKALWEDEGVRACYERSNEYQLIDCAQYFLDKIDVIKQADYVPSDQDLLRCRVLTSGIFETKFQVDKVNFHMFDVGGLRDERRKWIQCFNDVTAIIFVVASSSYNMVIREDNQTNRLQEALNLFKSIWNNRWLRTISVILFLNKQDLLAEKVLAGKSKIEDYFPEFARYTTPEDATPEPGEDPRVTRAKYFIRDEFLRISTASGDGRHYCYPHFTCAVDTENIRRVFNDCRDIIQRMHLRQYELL
T7 sequence (Q08462 whole entry): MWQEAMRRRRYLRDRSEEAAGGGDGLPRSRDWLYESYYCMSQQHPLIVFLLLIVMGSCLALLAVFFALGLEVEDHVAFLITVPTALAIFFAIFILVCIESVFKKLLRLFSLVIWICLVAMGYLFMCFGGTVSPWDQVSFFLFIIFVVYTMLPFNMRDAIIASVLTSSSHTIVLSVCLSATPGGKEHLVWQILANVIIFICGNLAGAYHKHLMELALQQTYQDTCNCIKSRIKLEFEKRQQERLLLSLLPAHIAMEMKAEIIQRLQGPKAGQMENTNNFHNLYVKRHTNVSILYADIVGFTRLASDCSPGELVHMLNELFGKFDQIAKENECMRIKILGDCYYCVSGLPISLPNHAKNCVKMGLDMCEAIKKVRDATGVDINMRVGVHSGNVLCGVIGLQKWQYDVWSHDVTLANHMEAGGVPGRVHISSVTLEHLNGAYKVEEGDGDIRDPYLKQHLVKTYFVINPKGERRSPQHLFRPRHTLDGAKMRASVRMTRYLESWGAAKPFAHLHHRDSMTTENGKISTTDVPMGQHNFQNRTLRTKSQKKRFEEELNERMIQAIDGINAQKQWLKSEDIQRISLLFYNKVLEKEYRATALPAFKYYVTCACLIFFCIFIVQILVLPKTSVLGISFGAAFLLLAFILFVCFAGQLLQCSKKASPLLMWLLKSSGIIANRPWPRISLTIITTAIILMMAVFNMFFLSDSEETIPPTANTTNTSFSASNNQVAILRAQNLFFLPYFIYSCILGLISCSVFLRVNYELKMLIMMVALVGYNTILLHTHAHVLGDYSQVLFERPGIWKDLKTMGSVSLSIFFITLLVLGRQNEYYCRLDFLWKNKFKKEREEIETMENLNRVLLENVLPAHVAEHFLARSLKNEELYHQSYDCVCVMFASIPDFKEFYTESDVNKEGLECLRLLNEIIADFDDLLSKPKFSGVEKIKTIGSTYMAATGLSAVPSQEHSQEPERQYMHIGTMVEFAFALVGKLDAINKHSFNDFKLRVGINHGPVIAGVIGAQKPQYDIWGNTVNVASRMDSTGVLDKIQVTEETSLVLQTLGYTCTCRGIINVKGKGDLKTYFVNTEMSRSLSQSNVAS
T7 sequence (P63092 2-394 Q227L partner): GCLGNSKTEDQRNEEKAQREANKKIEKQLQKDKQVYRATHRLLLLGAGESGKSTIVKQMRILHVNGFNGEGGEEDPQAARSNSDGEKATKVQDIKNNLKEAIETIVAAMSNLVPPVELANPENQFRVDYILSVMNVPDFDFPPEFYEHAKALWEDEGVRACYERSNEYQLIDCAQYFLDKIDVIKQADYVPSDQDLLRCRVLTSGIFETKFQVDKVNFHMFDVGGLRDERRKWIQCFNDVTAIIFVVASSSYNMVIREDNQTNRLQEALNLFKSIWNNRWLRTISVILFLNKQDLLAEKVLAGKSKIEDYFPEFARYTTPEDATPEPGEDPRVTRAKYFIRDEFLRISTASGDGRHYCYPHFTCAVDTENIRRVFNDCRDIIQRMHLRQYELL
T4 sequence (O60503 whole entry): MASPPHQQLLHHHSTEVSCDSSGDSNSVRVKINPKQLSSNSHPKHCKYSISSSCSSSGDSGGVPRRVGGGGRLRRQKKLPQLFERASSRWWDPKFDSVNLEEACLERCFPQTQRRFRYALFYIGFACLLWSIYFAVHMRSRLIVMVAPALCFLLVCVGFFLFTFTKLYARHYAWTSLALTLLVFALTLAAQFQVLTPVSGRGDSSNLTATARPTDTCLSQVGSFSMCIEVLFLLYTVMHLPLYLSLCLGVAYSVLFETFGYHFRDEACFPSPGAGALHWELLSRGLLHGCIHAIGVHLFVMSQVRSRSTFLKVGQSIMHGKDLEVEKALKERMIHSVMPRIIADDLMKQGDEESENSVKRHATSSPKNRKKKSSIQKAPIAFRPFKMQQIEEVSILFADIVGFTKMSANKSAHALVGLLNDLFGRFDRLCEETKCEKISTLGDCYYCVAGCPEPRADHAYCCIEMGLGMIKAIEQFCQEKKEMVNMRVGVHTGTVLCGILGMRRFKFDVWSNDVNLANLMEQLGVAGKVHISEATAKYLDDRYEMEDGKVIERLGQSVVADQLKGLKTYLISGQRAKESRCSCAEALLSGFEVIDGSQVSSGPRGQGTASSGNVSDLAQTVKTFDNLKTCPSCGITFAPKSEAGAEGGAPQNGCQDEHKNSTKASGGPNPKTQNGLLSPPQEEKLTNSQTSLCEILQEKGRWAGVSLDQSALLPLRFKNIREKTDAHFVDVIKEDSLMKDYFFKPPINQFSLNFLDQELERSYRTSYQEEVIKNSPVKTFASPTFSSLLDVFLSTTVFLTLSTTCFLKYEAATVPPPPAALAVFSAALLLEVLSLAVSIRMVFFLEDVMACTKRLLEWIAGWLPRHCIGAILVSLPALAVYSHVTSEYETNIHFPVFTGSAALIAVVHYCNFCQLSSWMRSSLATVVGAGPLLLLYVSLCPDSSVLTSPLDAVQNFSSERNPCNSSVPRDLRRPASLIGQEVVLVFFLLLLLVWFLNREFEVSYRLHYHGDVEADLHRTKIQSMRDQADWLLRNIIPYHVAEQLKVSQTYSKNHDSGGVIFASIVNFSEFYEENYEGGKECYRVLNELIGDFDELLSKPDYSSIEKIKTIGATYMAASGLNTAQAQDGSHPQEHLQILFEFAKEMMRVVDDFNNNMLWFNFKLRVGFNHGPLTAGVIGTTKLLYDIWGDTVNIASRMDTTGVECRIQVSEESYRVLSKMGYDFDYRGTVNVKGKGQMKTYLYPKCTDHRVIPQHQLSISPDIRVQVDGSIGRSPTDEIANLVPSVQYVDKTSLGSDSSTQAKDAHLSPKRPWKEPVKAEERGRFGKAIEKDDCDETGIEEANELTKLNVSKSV
T4 sequence (P63092 2-394 Q227L partner): as the sequence (P63092 2-394 Q227L partner) above

Row | SMILES | mAC4 activity [%] (100% = 300nM Gsα stimulation); 20µM fatty acid concentration (mAC4) | mAC8 activity [%] (100% = 300nM Gsα stimulation) (mAC8) | mAC1 activity [%] (100% = 300nM Gsα stimulation); 20µM fatty acid concentration (mAC1) | mAC6 activity [%] (100% = 300nM Gsα stimulation) (mAC6) | mAC3 activity [%] (100% = 300nM Gsα stimulation) (mAC3; fatty acid 20 µM) | mAC2 activity [%] (100% = 300nM Gsα stimulation); 20µM fatty acid concentration (mAC2) | mAC7 activity [%] (100% = 300nM Gsα stimulation); 20µM fatty acid concentration (mAC7) | mAC5 activity [%] (100% = 300nM Gsα stimulation) (mAC5; 20µM fatty acid concentration) | mAC9 activity (%);(100% = Gsα stimulation) stimulated by 300nM Gsα (mAC9; [2]) | mAC9 activity (%);(100% = Gsα stimulation) stimulated by 300nM Gsα (mAC9; [3]) | EC50 (mAC9) | mAC9 activity (%);(100% = Gsα stimulation) stimulated by 300nM Gsα (mAC9; [4]) | Effect of lipid on 300 nM Gsα-stimulated mAC3 (mAC3) | further results
1 | CCCCCCCCCC(O)CCCCCCCC(=O)O (stereo not drawn) [9-HSA, 9-Hydroxystearic acid] | 134% and 93% | 67% and 108% | 95% and 93% | 122% and 118% | 104% and 110% | 89% and 75% | 161% and 83% | 100% and 102% |  |  |  |  |  | mAC9 activity [%] (100% = 300nM Gsα stimulation); 20µM fatty acid concentration (mAC9; [1]): 93% and 157%
2 | CCCCCCCCCCCC(=O)O [Lauric acid, Lauric (dodecanoic) acid] | 54% and 104% and 67% | 80% and 69% |  | 93% and 80% | 117% and 189% and 186% and 84% | 89% and 79% |  | 107% and 56% | 128% and 86% and 116% | 165% and 99% and 97% and 190% | 13.7 µM |  |  | 
3 | CCCCC/C=C\C/C=C\CCCCCCCC(=O)O [Linoleic acid, Linoleic ((9Z,12Z)-octadecadienoic) acid] |  | 119% and 212% and 115% and 129% | 62% and 76% and 95% | 105% and 198% and 128% | 376% and 503% and 335% and 235% and 456% | 118% and 99% and 198% and 131% | 135% and 130% | 112% and 153% | 129% and 139% and 117% and 119% | 164% and 205% and 170% and 134% and 195% |  | 240% and 217% and 225% and 306% and 322% and 286% and 203% | efficient enhancers | mAC9 activity (%);(100% = Gsα stimulation) stimulated by 300nM Gsα (mAC9; 1 µM fatty acid, 300 nM Gsα, single experiments): 145% and 101% and 154% and 180%
4 | CCCCCCCC/C=C\CCCCCCCC(N)=O [Oleamide, Oleamide ((9Z)-octadecenamide)] | 104% and 64% and 83% | 104% and 74% | 99% and 109% | 98% and 77% | 154% and 144% and 201% and 238% and 301% and 167% and 90% and 168% | 133% and 84% | 107% and 99% | 97% and 111% |  |  |  |  | less efficacious | 
5 | CCCCCCCCCCCCCCCC(=O)O [Palmitic acid, Palmitic (hexadecanoic) acid] | 76% and 92% and 77% and 101% |  | 93% and 87% and 105% | 91% and 114% and 61% and 106% | 279% and 263% and 138% and 341% and 182% and 165% and 224% and 164% and 153% and 126% and 243% | 108% and 97% | 106% and 127% and 193% and 124% | 123% and 77% and 97% |  |  | 8.6 µM | 258% and 146% and 141% and 173% and 189% and 161% and 157% | less efficacious | mAC9 activity (%);(100% = Gsα stimulation) stimulated by 300nM Gsα (mAC9; [1]): 184%; Effect of lipid on 300 nM Gsα-stimulated mAC3 (mAC3; listed as palmitic acid): twofold; EC50 (mAC3; enhancement of 300 nM Gsα-stimulated activity): 6.4 µM; mAC3 activity [%] (100% = 300nM Gsα stimulation) (mAC3; fatty acid 0.5 µM): 100%; mAC3 activity [%] (100% = 300nM Gsα stimulation) (mAC3; fatty acid 1 µM): 166% and 108% and 118% (2×) and 87% and 83% and 122%; mAC3 activity [%] (100% = 300nM Gsα stimulation) (mAC3; fatty acid 3 µM): 122% and 126% and 125% and 136% and 114% and 107% and 116%; mAC3 activity [%] (100% = 300nM Gsα stimulation) (mAC3; fatty acid 6 µM): 107% and 145% and 118% and 129% and 73% and 158% and 259%; mAC3 activity [%] (100% = 300nM Gsα stimulation) (mAC3; fatty acid 10 µM): 188% and 338% and 172% and 339% and 112% and 94% and 165% and 197% and 126% and 128% and 237%; mAC5 activity [%] (100% = 300nM Gsα stimulation) (mAC5; fatty acid 0.5 µM, individual experiments): 100%; mAC5 activity [%] (100% = 300nM Gsα stimulation) (mAC5; fatty acid 1 µM, individual experiments): 71% and 83% and 111%; mAC5 activity [%] (100% = 300nM Gsα stimulation) (mAC5; fatty acid 3 µM, individual experiments): 66% and 80% and 162%; mAC5 activity [%] (100% = 300nM Gsα stimulation) (mAC5; fatty acid 6 µM, individual experiments): 50% and 108% and 125%; mAC5 activity [%] (100% = 300nM Gsα stimulation) (mAC5; fatty acid 10 µM, individual experiments): 57% and 89% and 94% and 103%; mAC5 activity [%] (100% = 300nM Gsα stimulation) (mAC5; fatty acid 20 µM, individual experiments): 123% (2×) and 77% and 97%

From publication PMC11606603, “The membrane domains of mammalian adenylyl cyclases are lipid receptors” (eLife, 2024)
